In the assay the target is JAK2 (Homo sapiens (Human), UniProt O60674). In words: JAK2 Tyrosine Kinase Assay. The assay is classed as biochemical. The following applies: ATP 30 μM; JAK2 1 nM; 60 min at room temperature. On the procedure: JAK2 Tyrosine Kinase Assay
The assays were performed in V-bottom 384-well plates. […] The reaction was initiated by the combination of JAK2 with substrates and test compounds. The reaction was incubated at room temperature for 60 min. and terminated by adding 45 μl of 35 mM EDTA to each sample. The reaction mixture was analyzed on the Caliper LABCHIP® 3000 by electrophoretic separation of the fluorescent substrate and phosphorylated product. […] Compounds were dissolved at 10 mM in dimethylsulfoxide (DMSO) and evaluated at eleven concentrations, each in duplicate. IC50 values were derived by non-linear regression analysis

pIC50: −log10 of the molar value.

JAK2, sequence (O60674 whole entry): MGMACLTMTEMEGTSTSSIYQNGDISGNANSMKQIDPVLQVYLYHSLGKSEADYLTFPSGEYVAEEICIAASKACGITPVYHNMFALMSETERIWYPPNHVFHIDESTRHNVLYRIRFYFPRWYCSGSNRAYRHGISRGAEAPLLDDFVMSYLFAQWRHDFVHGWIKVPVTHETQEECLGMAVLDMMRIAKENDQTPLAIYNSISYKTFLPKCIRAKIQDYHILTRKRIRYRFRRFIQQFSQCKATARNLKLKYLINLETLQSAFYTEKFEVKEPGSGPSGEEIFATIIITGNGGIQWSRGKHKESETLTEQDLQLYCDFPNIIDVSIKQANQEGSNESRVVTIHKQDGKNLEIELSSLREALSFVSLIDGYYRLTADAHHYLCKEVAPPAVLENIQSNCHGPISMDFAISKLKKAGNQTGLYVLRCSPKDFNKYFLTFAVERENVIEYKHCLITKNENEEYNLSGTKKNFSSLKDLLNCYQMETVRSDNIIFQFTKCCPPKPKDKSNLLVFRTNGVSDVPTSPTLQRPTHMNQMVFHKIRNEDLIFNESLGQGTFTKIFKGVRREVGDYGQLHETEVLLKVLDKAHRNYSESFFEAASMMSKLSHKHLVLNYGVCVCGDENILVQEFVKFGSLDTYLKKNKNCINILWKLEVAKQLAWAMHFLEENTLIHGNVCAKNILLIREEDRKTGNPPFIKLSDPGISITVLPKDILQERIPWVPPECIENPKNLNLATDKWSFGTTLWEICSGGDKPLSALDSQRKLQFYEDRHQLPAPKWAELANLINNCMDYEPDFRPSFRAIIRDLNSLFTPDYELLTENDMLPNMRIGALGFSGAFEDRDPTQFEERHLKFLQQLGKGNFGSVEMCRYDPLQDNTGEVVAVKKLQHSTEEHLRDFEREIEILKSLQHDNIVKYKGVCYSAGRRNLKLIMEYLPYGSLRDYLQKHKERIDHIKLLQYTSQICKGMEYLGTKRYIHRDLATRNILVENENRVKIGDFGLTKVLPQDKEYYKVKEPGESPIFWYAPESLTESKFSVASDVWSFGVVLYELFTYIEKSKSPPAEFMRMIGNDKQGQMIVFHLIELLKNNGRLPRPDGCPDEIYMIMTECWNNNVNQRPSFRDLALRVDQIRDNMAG

In general, pIC50 refers to −log10 of the IC50, conventionally taken in molar units. Turning to `NC(=O)c1cc(-c2ccc(F)c(F)c2)nc2c1[nH]c1cc(C(=O)N3CCOCC3)ccc12` [Example 216, 2-(3,4-difluorophenyl)-7-(4-morpholinylcarbonyl)-5H-pyrido[3,2-b]indole-4-carboxamide], the pIC50 was 8.15.
Regarding `NC(=O)c1cc(-c2ccc(CN3CCOCC3)s2)nc2c1[nH]c1cc(N3CCOCC3)ccc12` [Example 345, 7-morpholino-2-(5-(morpholinomethyl)thiophen-2-yl)-5H-pyrido[3,2-b] indole-4-carboxamide], the negative-log IC50 (pIC50) was 9.00.
Next, `NC(=O)c1cc(N2CCC(N)CC2)nc2c1[nH]c1cc(C(=O)N3CCOCC3)ccc12` [Example 405, 2-(4-aminopiperidin-1-yl)-7-(morpholine-4-carbonyl)-5H-pyrido[3,2-b]indole-4-carboxamide]: 6.20; `CN1CCN(c2ccc3c(c2)[nH]c2c(C(N)=O)cc(-c4cccc(Cl)c4)nc23)CC1` [Example 309, 2-(3-chlorophenyl)-7-(4-methylpiperazin-1-yl)-5H-pyrido[3,2-b]indole-4-carboxamide]: 9.00.
